The values that follow come from patent publication US9630977B2, “Cephalosporin derivatives and pharmaceutical compositions thereof” (Legochem Biosciences, Inc., priority 2011, dated 2017).

One assay concerns P. aeruginosa R1023. The experiment in a line: In vivo efficacy, whole-body infected mouse model, Ceftazidime-resistant bacteria.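 On Survival rate: each column one dose of 5 10 20 or 40 mg/kg given sc at 1 h and 4 h.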 The arrangement: species or system ICR mouse. The conditions noted are these: for Survival rate: subcutaneous 1 h and 4 h after infection, P. aeruginosa R1023 (2 × 10^6 CFU/mouse), four days. The method, then: (§1) Pharmaceutical efficacy of the cephalosporin derivative compounds according to the present invention was evaluated in a whole-body infected mouse model. Tables 3 and 4 show survival rate and ED50 values for the two compounds with excellent antibacterial activity with regard to an infected mouse by a drug-sensitive bacteria and a drug-resistant bacteria.
(§2) Test animals: 3 week old male ICR mouse, weight 18˜22 g; 5 mice/group.
(§3) Lab conditions: Temperature of 23±2° C.; humidity of 55±20%.
(§4) Administration method: Inducing whole-body infection by bacterial solution followed by subcutaneous injection (0.2 mL) after 1 hour and 4 hours.
(§5) Test method: Cultured bacteria were diluted with 0.9% NaCl to prepare a bacterial solution having a concentration that is 5 to 10 times of […]. 0.5 mL of bacterial solution was injected through abdominal cavity to induce whole-body infection. Test compounds were administered in four different amounts, which were designed considering in vitro MIC values of the test bacteria. After 1 hour and 4 hours, the four different amounts of the test compounds were subcutaneously administered. Survival rates were measured for four days and ED50 values were calculated according to the Probit method.

Another assay deals with P. aeruginosa 1912E. The experiment in a line: In vivo efficacy, whole-body infected mouse model, Ceftazidime-sensitive bacteria. Set-up: species or system ICR mouse. The conditions noted are these: P. aeruginosa 1912E (2 × 10^6CFU/mouse); for Survival rate: four days. As to the method: as §1, §2, §3, §4, §5

Each structure is given as a SMILES string.

Broadly, the ED50 is the midpoint of the dose-response relation. The molecule `C[C@H](O/N=C(\C(=O)N[C@@H]1C(=O)N2C(C(=O)[O-])=C(C[n+]3cnc(N)c(NCCNC(=O)c4cc(=O)c(O)cn4O)c3)CSC12)c1nc(N)sc1Cl)C(=O)O` (some centres unmarked) [Compound 4] yielded a 50% effective dose (ED50) in the assay on P. aeruginosa R1023 (Pseudomonas aeruginosa, sc, Probit method, subcutaneous, mouse infected by Ceftazidime-resistant P. aeruginosa R1023) of 10 mg/kg. The Survival rate in the assay on P. aeruginosa R1023 (administered amount 5 mg/kg) came out at 40%; in the assay on P. aeruginosa R1023 (administered amount 10 mg/kg), 40%; in the assay with P. aeruginosa R1023 (administered amount 20 mg/kg) it was 80%; in the assay on P. aeruginosa R1023 (administered amount 40 mg/kg), 100%. Moreover, the “pharmaceutical efficacy (in words)” value in the assay with P. aeruginosa R1023 (whole-body infected mice by the drug-resistant bacteria) is “much greater than that of Ceftazidime”.

Consider `CC(C)(O/N=C(\C(=O)N[C@@H]1C(=O)N2C(C(=O)[O-])=C(/C=C/C[n+]3cnc(N)c(NCCNC(=O)c4cc(=O)c(O)cn4O)c3)CSC12)c1csc(N)n1)C(=O)O` (some centres unmarked) [Compound 8], for which the Survival rate with P. aeruginosa 1912E (2.5 mg/kg subcutaneous after 1 hour and 4 hours) was found to be 60%; in the assay on P. aeruginosa 1912E (5 mg/kg subcutaneous after 1 hour and 4 hours), 80%; in the assay with P. aeruginosa 1912E (10 mg/kg subcutaneous after 1 hour and 4 hours), 100%; in the assay on P. aeruginosa 1912E (20 mg/kg subcutaneous after 1 hour and 4 hours), 100%. Also, it took a dose of 1.25 mg/kg to reach the 50% effect level in the assay on P. aeruginosa 1912E (Pseudomonas aeruginosa, sc, subcutaneous, Probit method) (ED50).
